Positions count from the first letter of the chain named.
Assays:
Test in all cases: HilD half-life (degradation) assay by western blot
Format in all cases: cell-based
HilD [1] = target: T1, HilD (Salmonella typhimurium, UniProt P0CL08); conditions: wild type HilD-3XFLAG; grown with 20 μM fatty acid for two hours, protein expression halted
T1 construct: hilD with a C-terminal 3XFLAG tag was cloned into pWSK29 under control of the tetRA promoter; expressed in transfected cells; host or cells: Salmonella Typhimurium strain carrying pWSK29-PtetRA-hilD-3XFLAG (background with chromosomal hilD, hilC and rtsA null)
T1 sequence (P0CL08 1-309): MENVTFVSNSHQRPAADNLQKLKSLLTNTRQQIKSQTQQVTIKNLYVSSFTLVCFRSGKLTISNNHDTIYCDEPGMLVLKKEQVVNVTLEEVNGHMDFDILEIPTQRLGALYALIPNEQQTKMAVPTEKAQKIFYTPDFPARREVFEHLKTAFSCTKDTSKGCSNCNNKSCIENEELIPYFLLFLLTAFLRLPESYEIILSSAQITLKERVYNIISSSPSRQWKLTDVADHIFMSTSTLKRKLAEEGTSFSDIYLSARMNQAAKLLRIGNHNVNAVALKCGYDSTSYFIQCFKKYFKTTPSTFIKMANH
Procedure: (§1) The HilD half-life was assessed as previously described. Salmonella strains having plasmids with tetracycline-inducible hilD or its mutated sequence with a C-terminal 3XFLAG tag and a sipB::lacZ fusion (for invasion gene expression assessment) were grown overnight and then diluted 1:100 into LB buffered with 100 mM MOPS (pH 6.7) with appropriate antibiotics and fatty acids or control solvents. After 2 hours of growth, aliquots were collected to quantitate sipB::lacZ expression in a β-galactosidase assay. Individual cultures were then equilibrated to an OD600 of 1.0 to ensure equal density at the half-life assay beginning point. New protein production was halted by addition of a cocktail of antibiotics (rifampin, streptomycin and spectinomycin). These cultures were incubated at 37°C and aliquots were collected every 30 minutes for 2 hours. Samples were lysed in 5X sample buffer, boiled, and immunoblotted with an anti-FLAG antibody to monitor HilD.

HilD [2] = target: T2, HilD (Salmonella typhimurium, UniProt P0CL08, K293A); conditions: HilD K293A-3XFLAG; 20 μM fatty acid
T2 construct: hilD with a C-terminal 3XFLAG tag was cloned into pWSK29 under control of the tetRA promoter; expressed in transfected cells; host or cells: Salmonella Typhimurium strain carrying pWSK29-PtetRA-hilD-3XFLAG (background with chromosomal hilD, hilC and rtsA null)
T2 sequence (P0CL08 1-309 K293A): T1 sequence (P0CL08 1-309) with K293A
Procedure: as §1

HilD [3] = target: T3, HilD (Salmonella typhimurium, UniProt P0CL08, K294A); conditions: HilD K294A-3XFLAG; 20 μM fatty acid
T3 construct: hilD with a C-terminal 3XFLAG tag was cloned into pWSK29 under control of the tetRA promoter; expressed in transfected cells; host or cells: Salmonella Typhimurium strain carrying pWSK29-PtetRA-hilD-3XFLAG (background with chromosomal hilD, hilC and rtsA null)
T3 sequence (P0CL08 1-309 K294A): T1 sequence (P0CL08 1-309) with K294A
Procedure: as §1

HilD [4] = target: T4, HilD (Salmonella typhimurium, UniProt P0CL08, K43A); conditions: HilD K43A-3XFLAG; 20 μM fatty acid
T4 construct: hilD with a C-terminal 3XFLAG tag was cloned into pWSK29 under control of the tetRA promoter; expressed in transfected cells; host or cells: Salmonella Typhimurium strain carrying pWSK29-PtetRA-hilD-3XFLAG (background with chromosomal hilD, hilC and rtsA null)
T4 sequence (P0CL08 1-309 K43A): T1 sequence (P0CL08 1-309) with K43A
Procedure: as §1

HilD [5] = target: T5, HilD (Salmonella typhimurium, UniProt P0CL08, Q290A); conditions: HilD Q290A-3XFLAG; 20 μM fatty acid
T5 construct: hilD with a C-terminal 3XFLAG tag was cloned into pWSK29 under control of the tetRA promoter; expressed in transfected cells; host or cells: Salmonella Typhimurium strain carrying pWSK29-PtetRA-hilD-3XFLAG (background with chromosomal hilD, hilC and rtsA null)
T5 sequence (P0CL08 1-309 Q290A): T1 sequence (P0CL08 1-309) with Q290A
Procedure: as §1

HilD [6] = target: T6, HilD (Salmonella typhimurium, UniProt P0CL08, R267A); conditions: HilD R267A-3XFLAG; 20 μM fatty acid
T6 construct: hilD with a C-terminal 3XFLAG tag was cloned into pWSK29 under control of the tetRA promoter; expressed in transfected cells; host or cells: Salmonella Typhimurium strain carrying pWSK29-PtetRA-hilD-3XFLAG (background with chromosomal hilD, hilC and rtsA null)
T6 sequence (P0CL08 1-309 R267A): T1 sequence (P0CL08 1-309) with R267A
Procedure: as §1

SMILES | HilD degradation (HilD [1]) | HilD degradation (HilD [2]) | HilD degradation (HilD [3]) | HilD degradation (HilD [4]) | HilD degradation (HilD [5]) | HilD degradation (HilD [6])
CCCCCCCCCCCCC/C=C\C(=O)O [c2-HDA, cis-2-hexadecenoic acid] | Rapid degradation | protected from degradation | protected from degradation | degraded as rapidly as wild type HilD | degraded as rapidly as wild type HilD | protected from degradation
CCCCCCCCCCCCC/C=C/C(=O)O [t2-HDA, trans-2-hexadecenoic acid] | degraded | rapidly degraded | rapidly degraded | escaped degradation | escaped degradation | escaped degradation

From PMC7932555, “A diffusible signal factor of the intestine dictates Salmonella invasion through its direct control of the virulence activator HilD” (PLoS Pathogens, 2021)
